This passage reports IC50 results from patent publication US8993585B2, “Cyclic amine substituted pyrimidinediamines as PKC inhibitors” (Rigel Pharmaceuticals, Inc., priority 2007, dated 2015).

The assay concerns Human primary T cells. Kind of assay: IL-2 ELISA, Human Primary T Cell, Anti-CD3+CD28+ (Example 3). As to conditions: anti-CD3+CD28 stimulation. Format: cell-based. Here is the method:
Human primary T cell isolation and culture: Human primary T cells were prepared as follows. […] The cells at the serum:ficoll interface were recovered and washed twice with 5 volumes of PBS. […] The primary T-cells were then washed twice with PBS to remove the IL-2.
Primary T cell stimulation and IL2 ELISA: Human primary T cells (100,000 cells per well) were pre-incubated with or without test compound in Yssel's medium for 1 hr at 37° C. Cells were then stimulated by transferring them to round-bottom 96-well plates pre-coated with 1 ug/ml αCD3 and 5 μg/ml αCD28. For counter assay, cells were instead stimulated by adding 8× stock solutions of PMA and ionomycin in Yssels (for final concentrations of 0.5 ng/ml PMA and 0.1 uM ionomycin, both from Calbiochem).

For the compound `COC(=O)/C=C/N1C(C)(C)CC(Nc2nc(Nc3ccc(OC)c(OC)c3)ncc2F)CC1(C)C` [Compound I-297], where the note is “24 hours”, the IC50 is 24700 nM. For the compound `CN1C(C)(C)CC(Nc2nc(Nc3ccc(Br)c(F)c3)ncc2F)CC1(C)C` [Compound I-110], where the note is “24 hours”, the half-inhibitory concentration (IC50) turned out to be 491 nM.

`COc1ccc(Nc2ncc(F)c(NC3CC(C)(C)N(C)C(C)(C)C3)n2)cc1OCC(F)(F)F` [Compound I-401]: under “24 hours”, inhibition was half-maximal at 3160 nM (IC50).

For the compound `COc1cc(C)c(Nc2ncc(F)c(NC3CC(C)(C)NC(C)(C)C3)n2)cc1OC` [Compound I-379], for the setting “24 hours”, it took 34500 nM to reach half-maximal inhibition (IC50). Regarding `COc1cc(Nc2ncc(F)c(NC3CC(C)(C)N(CCC(=O)O)C(C)(C)C3)n2)cc(OC)c1` [Compound I-302], half-maximal inhibition (Homo sapiens, T-cell, 24 h) (IC50) was put at 25100 nM. The compound `CC1(C)CC(Nc2nc(Nc3ccc(-c4ccc(N5CCOCC5)nc4)c(C#N)c3)ncc2F)CC(C)(C)N1` [Compound I-429] came in with an IC50 (Homo sapiens, T-cell, 24 h) of 770 nM.

Take `COc1cc(Nc2ncc(F)c(NC3CC(C)(C)NC(C)(C)C3)n2)cc(OC)c1` [Compound I-371]: under “24 hours”, the IC50 was 550 nM.

Compound `COc1cc(Nc2ncc(C#N)c(NC3CC(C)(C)N(C)C(C)(C)C3)n2)cc(-n2cnnn2)c1` [Compound I-404] registered an IC50 (24 hours) of 170 nM. `CN1C(=O)c2ccc(Nc3ncc(F)c(NC4CC(C)(C)NC(C)(C)C4)n3)cc2C1=O` [II-153] registered an IC50 (Homo sapiens, T-cell, 24 h) of 1800 nM. This lies in the single-digit micromolar range. Under “24 hours”, `CN1C(C)(C)CC(Nc2nc(Nc3ccc4c(c3)OC(C)(C)C(=O)N4CC3CC3)ncc2F)CC1(C)C` [II-76] came in with an IC50 of 178 nM. The same measure, in the same setting: then `CN1C(C)(C)CC(Nc2nc(Nc3ccc(N4CCNCC4)c(C(F)(F)F)c3)ncc2[N+](=O)[O-])CC1(C)C` [Compound I-75], with 11300 nM; and `CN1C(C)(C)CC(Nc2nc(Nc3ccc(C#N)cc3)ncc2F)CC1(C)C` [Compound I-25], with 4890 nM.

`CN1C(C)(C)CC(Nc2nc(Nc3ccc4c(c3)OC(F)(F)O4)ncc2F)CC1(C)C` [II-37] gave an IC50 (Homo sapiens, T-cell, 24 h) of 1370 nM. That is a single-digit micromolar value. Same read-out and setting: the value for `Cc1ccc(Nc2ncc(F)c(NC3CC(C)(C)N(CCC(=O)O)C(C)(C)C3)n2)cc1C#N` [Compound I-306] was 10500 nM; that for `CN1C(C)(C)CC(Nc2nc(Nc3ccc4c(c3)n(C)c(=O)n4C)ncc2F)CC1(C)C` [II-56] was 968 nM. Same read-out and setting: the value for `CC(C)n1c(=O)oc2cc(Nc3ncc(F)c(NC4CC(C)(C)N(C)C(C)(C)C4)n3)ccc21` [II-47] was 229 nM. Consider `COc1ccc(Nc2ncc(F)c(NC3CC(C)(C)N(C)C(C)(C)C3)n2)cc1F` [Compound I-127], for which the IC50 (24 hours) came to 1140 nM. On the same count and under the same terms, the value for `CCN1CCN(c2ccc(Nc3ncc(C)c(NC4CC(C)(C)N(C)C(C)(C)C4)n3)cc2C)CC1` [Compound I-18] was 9440 nM.

For the setting “24 hours”, `CN1C(C)(C)CC(Nc2nc(Nc3ccc(N4CCN(S(C)(=O)=O)CC4)c(C(F)(F)F)c3)ncc2F)CC1(C)C` [Compound I-48] registered a concentration for half-maximal inhibition (IC50) of 39 nM. Still for that read-out and setting: then `COc1cc(Nc2ncc(C(F)(F)F)c(NC3CC(C)(C)N(C)C(C)(C)C3)n2)cc(-n2nnnc2C)c1` [Compound I-370], with 93.2 nM; and `CN1C(C)(C)CC(Nc2nc(Nc3ccc(NC(=O)c4ccccc4)cc3)ncc2F)CC1(C)C` [Compound I-133], with 1130 nM; and `CCCN1C(C)CN(c2cc(Nc3ncc(F)c(NC4CC(C)(C)N(C)C(C)(C)C4)n3)ccc2Cl)CC1C` (stereo not shown) [Compound I-220], with 1050 nM.

In turn, `CN1C(C)(C)CC(Nc2nc(Nc3ccc4c(c3)OC(C)(C)C(=O)N4CCCF)ncc2C#N)CC1(C)C` [II-81] displayed an IC50 (Homo sapiens, T-cell, 24 h) of 567 nM. Compound `CN1C(C)(C)CC(N(Cc2ccc3ccccc3c2)c2nc(Nc3ccc4c(c3)OCCO4)ncc2F)CC1(C)C` [II-87] registered a 50% inhibitory concentration (IC50) (Homo sapiens, T-cell, 24 h) of 3810 nM. On to `CCCc1nnnn1-c1cc(Nc2ncc(F)c(NC3CC(C)(C)N(C)C(C)(C)C3)n2)ccc1OC` [Compound I-395], for which the IC50 (24 hours) turned out to be 100 nM.

`Cc1csc(-c2ccc(Nc3ncc(F)c(NC4CC(C)(C)N(C)C(C)(C)C4)n3)cc2C(F)(F)F)c1` [Compound I-116] registered an IC50 (24 hours) of 1230 nM. In the case of `C#Cc1cnc(Nc2ccc3c(c2)OCCO3)nc1NC1CC(C)(C)N(C)C(C)(C)C1` [II-156], half-maximal inhibition (Homo sapiens, T-cell, 24 h) (IC50) was put at 5930 nM. For the compound `CN1C(C)(C)CC(Nc2nc(Nc3ccc(N4CCOCC4)c(C(F)(F)F)c3)ncc2Cl)CC1(C)C` [Compound I-241], half-maximal inhibition (24 hours) (IC50) was put at 361 nM.

`COc1cc(Nc2ncc(F)c(NC3CC(C)(C)N(C)C3(C)C)n2)cc(OC)c1OC` (stereo not shown) [Compound I-282, 5-Fluoro-N2-(3,4,5-trimethoxy)phenyl-N4-(1,2,2,5,5-pentamethylpyrrolidin-3-yl)-2,4-pyrimidinediamine] displayed an IC50 (24 hours) of 15300 nM. Same read-out and setting: then `CC1CN(c2ccc(Nc3ncc(F)c(NC4CC(C)(C)N(C)C(C)(C)C4)n3)cc2C(F)(F)F)CC(C)O1` (stereo not shown) [Compound I-225], with 755 nM; and `COc1ccc(Nc2ncc([N+](=O)[O-])c(NC3CC(C)(C)N(C)C(C)(C)C3)n2)cc1Cl` [Compound I-71], with 632 nM. On the same count and under the same terms, then `CN1C(C)(C)CC(Nc2nc(Nc3ccc(C(=O)NCCc4ccccn4)c(Cl)c3)ncc2F)CC1(C)C` [Compound I-362], with 667 nM; and `CN1C(C)(C)CC(Nc2nc(Nc3ccc(N4CCSCC4)c(C(F)(F)F)c3)ncc2F)CC1(C)C` [Compound I-331], with 806 nM. Consider `Cc1nc2cc(Nc3ncc(F)c(NC4CC(C)(C)N(C)C(C)(C)C4)n3)ccc2o1` [II-30], for which, where the note is “Homo sapiens, T-cell, 24 h”, the IC50 came out at 11100 nM. Consider `CCOC(=O)c1cnc(Nc2ccc(N3CCN(C)CC3)c(Cl)c2)nc1NC1CC(C)(C)N(C)C(C)(C)C1` [Compound I-89], for which the IC50 (24 hours) was determined as 5800 nM. `CN1C(C)(C)CC(Nc2nc(Nc3ccc4c(c3)OCC(=O)N4CCF)ncc2F)CC1(C)C` [II-82] registered an IC50 (Homo sapiens, T-cell, 24 h) of 291 nM.

The compound `CN1C(C)(C)CC(N(Cc2ccc(-c3ccccc3)cc2)c2nc(Nc3ccc4c(c3)OCCO4)ncc2F)CC1(C)C` [II-88] registered an IC50 (Homo sapiens, T-cell, 24 h) of 2480 nM. Compound `CN1C(C)(C)CC(Nc2nc(Nc3nc(C(F)(F)F)co3)ncc2F)CC1(C)C` [II-134] displayed an IC50 (Homo sapiens, T-cell, 24 h) of 16000 nM. This IC50 is about 6.5-fold higher than that of the compound before. Consider `CN1C(C)(C)CC(Nc2nc(Nc3cc(O)cc(O)c3)ncc2F)CC1(C)C` [Compound I-384], for which the IC50 (24 hours) turned out to be 9510 nM. Regarding `CN1C(C)(C)CC(Nc2nc(Nc3ccc(-c4ccncc4)c(Cl)c3)ncc2F)CC1(C)C` [Compound I-99], the IC50 (24 hours) was found to be 304 nM.

`COc1ccc(Nc2ncc(F)c(N(Cc3ccc4ccccc4n3)C3CC(C)(C)N(C)C(C)(C)C3)n2)cc1OC(F)F` [Compound I-321] returned a half-maximal inhibitory concentration (IC50) (Homo sapiens, T-cell, 24 h) of 5950 nM. Regarding `CN1C(C)(C)CC(Nc2nc(Nc3ccc(C(N)=O)cc3)ncc2F)CC1(C)C` [Compound I-23], under “24 hours”, half-maximal inhibition (IC50) required 1680 nM. In turn, `CCN(CC)c1ccc(-c2csc(Nc3ncc(F)c(NC4CC(C)(C)N(C)C(C)(C)C4)n3)n2)cc1` [II-135] gave an IC50 (Homo sapiens, T-cell, 24 h) of 3600 nM. Still for that read-out and setting: the value for `CN1C(C)(C)CC(Nc2nc(Nc3nc(-c4ccc(Oc5ccccc5)cc4)cs3)ncc2F)CC1(C)C` [II-139] was 910 nM. Compound `CN1C(C)(C)CC(Nc2nc(Nc3ccc(OCCN4CCOCC4)c(Cl)c3)ncc2C#N)CC1(C)C` [Compound I-373] displayed an IC50 (24 hours) of 542 nM. On to `CN1C(C)(C)CC(Nc2nc(Nc3ccc(N4CCN(S(C)(=O)=O)CC4)c(C(F)(F)F)c3)ncc2F)C1(C)C` (stereo not shown) [Compound I-286], for which it took 2420 nM to reach half-maximal inhibition (24 hours) (IC50). Turning to `Cc1ccc(Nc2ncc(F)c(N(Cc3ccc(-c4ccccc4C#N)cc3)C3CC(C)(C)N(C)C(C)(C)C3)n2)cc1C#N` [Compound I-326], 3080 nM corresponded to half-maximal inhibition (Homo sapiens, T-cell, 24 h) (IC50). The same measure, in the same setting: then `Cc1ccc(Nc2ncc(F)c(N(Cc3ccccc3)C3CC(C)(C)N(C)C(C)(C)C3)n2)cc1C#N` [Compound I-313], with 793 nM. With `CN1C(C)(C)CC(Nc2nc(Nc3ccc(-n4cccc4)c(C#N)c3)ncc2C(F)(F)F)CC1(C)C` [Compound I-172], the IC50 (24 hours) stood at 669 nM.

Compound `CCOC(=O)c1cnc(Nc2cccc(C#N)c2)nc1NC1CC(C)(C)N(C)C(C)(C)C1` [Compound I-81] yielded an IC50 (24 hours) of 28600 nM.

Turning to `CN1CCN(C(=O)c2ccc(Nc3ncc(F)c(NC4CC(C)(C)N(C)C(C)(C)C4)n3)cc2C(F)(F)F)CC1` [Compound I-64], where the note is “24 hours”, the IC50 worked out at 2600 nM. Compound `CN1C(C)(C)CC(N(Cc2ccccc2)c2nc(Nc3ccc(N4CCOCC4)c(C(F)(F)F)c3)ncc2F)CC1(C)C` [Compound I-312] yielded an IC50 (Homo sapiens, T-cell, 24 h) of 1690 nM. Regarding `CN1C(C)(C)CC(Nc2nc(Nc3ccc4c(c3)OC(C)(C)C(=O)N4CCCF)ncc2F)CC1(C)C` [II-78], it took 369 nM to reach half-maximal inhibition (Homo sapiens, T-cell, 24 h) (IC50). `COc1cc(Nc2ncc(C#C[Si](C)(C)C)c(NC3CC(C)(C)N(C)C(C)(C)C3)n2)cc(OC)c1` [Compound I-430]: the midpoint of inhibition (T-cell, 24 hours), the IC50, lay at 4470 nM. For `CN1C(C)(C)CC(Nc2nc(Nc3ccc4c(c3)OCC(=O)N4CC3CC3)ncc2F)CC1(C)C` [II-77], the IC50 (24 hours) was found to be 101 nM. The compound `COc1cc(Nc2ncc(C)c(NC3CC(C)(C)N(C)C(C)(C)C3)n2)cc(OC)c1` [Compound I-425] registered an IC50 (Homo sapiens, T-cell, 24 h) of 1140 nM. Same read-out and setting: then `CN1C(C)(C)CC(N(Cc2ccccc2)c2nc(Nc3ccc(N4CCN(S(C)(=O)=O)CC4)c(C(F)(F)F)c3)ncc2F)CC1(C)C` [Compound I-310], with 1410 nM. On to `COCCOc1cc(Nc2ncc(F)c(NC3CC(C)(C)N(C)C(C)(C)C3)n2)ccc1OC` [Compound I-413], for which the IC50 (24 hours) amounted to 6150 nM. `CN1CCN(c2ccc(Nc3ncc(Cl)c(NC4CC(C)(C)N(C)C(C)(C)C4)n3)cc2C(F)(F)F)CC1` [Compound I-37] gave an IC50 (24 hours) of 511 nM. `CN1CCN(C(=O)C2COc3cc(Nc4ncc(F)c(NC5CC(C)(C)NC(C)(C)C5)n4)ccc3O2)CC1` (stereo not shown) [II-160] displayed an IC50 (Homo sapiens, T-cell, 24 h) of 17900 nM.

With `CN1C(C)(C)CC(Nc2nc(Nc3ccc(N4CCOCC4)c(C(F)(F)F)c3)ncc2F)C1(C)C` (stereo not shown) [Compound I-287, 5-Fluoro-N2-[4-morpholino-3-(trifluoromethyl)]phenyl-N4-(1,2,2,5,5-pentamethylpyrrolidin-3-yl)-2,4-pyrimidinediamine], the IC50 (24 hours) amounted to 2190 nM.
